Measurements: patent US9302999B2, “Substituted triazoles as herbicides” (E. I. DU PONT DE NEMOURS AND COMPANY, priority 2012, dated 2016)

Columns and labels:
Type in all cases: in vivo
[1] = tested on: panicum, fall (fall panicum Panicum dichotomiflorum); test: Test F pre-/postemergence: panicum, fall; conditions: Preemergence
How it was run: (§1)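 0–100 visual control scores, taken 14–21 d after application in the greenhouse. Preemergence treatment was made to silt loam soil at sowing. Postemergence sprays hit 1- to 4-leaf plants (2–18 cm) in peat/vermiculite mix. Surfactant-containing non-phytotoxic solvent served as the vehicle.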

Waterhemp = test: Test C preemergence: waterhemp; conditions: 62 g ai/ha, scale of 0 to 100, 0 is no effect, 100 is complete control
From the text: Seeds of plant species selected from blackgrass (Alopecurus myosuroides), bromegrass, downy (downy bromegrass, Bromus tectorum), foxtail, green (green foxtail, Setaria viridis), ryegrass, Italian (Italian ryegrass, Lolium multiflorum), winter wheat (Triticum aestivum), wild oat (Avena fatua), galium (catchweed bedstraw, Galium aparine), bermudagrass (Cynodon dactylon), surinam grass (Brachiaria decumbens), cocklebur (common cocklebur, Xanthium strumarium), corn (Zea mays), large crabgrass (Digitaria sanguinalis), woolly cupgrass (Eriochloa villosa), foxtail, giant (giant foxtail, Setaria faberii), goosegrass (Eleusine indica), johnsongrass (Sorghum halepense), kochia (Kochia scoparia), lambsquarters (Chenopodium album), morningglory (Ipomoea coccinea), nightshade (eastern black nightshade, Solanum ptycanthum), nutsedge, yellow (yellow nutsedge, Cyperus esculentus), pigweed (Amaranthus retroflexus), ragweed (common ragweed, Ambrosia elation), soybean (Glycine max), common (oilseed) sunflower (Helianthus annuus), Russian thistle (Salsola kali) and velvetleaf (Abutilon theophrasti) were planted into a blend of loam soil and sand and treated preemergence with test chemicals formulated in a non-phytotoxic solvent mixture which included a surfactant.
Treated plants and controls were maintained in a greenhouse for 13 to 15 days, after which time all species were compared to controls and visually evaluated. Plant response ratings, summarized in Table C, are based on a scale of 0 to 100 where 0 is no effect and 100 is complete control. A dash (-) response means no test result.

[2] = tested on: foxtail, green (green foxtail Setaria viridis); test: Test F pre-/postemergence: foxtail, green; conditions: Preemergence
How it was run: as §1

[3] = tested on: surinam grass (Brachiaria decumbens); test: Test F pre-/postemergence: surinam grass; conditions: Preemergence
How it was run: as §1

kochia (Kochia scoparia) = test: Test D pre-/postemergence: kochia
How it was run: (§2)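 Scores run from 0 (no effect) to 100 (complete control), assigned by visual comparison with controls after 14 to 21 days in a controlled environment. Both preemergence application to silt loam and postemergence application to 1- to 4-leaf plants were tested.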

[4] = tested on: lambsquarters (Chenopodium album); test: Test D pre-/postemergence: lambsquarters
How it was run: as §2

[5] = tested on: mustard, wild (wild mustard, Sinapis arvensis); test: Test D pre-/postemergence: mustard, wild
How it was run: as §2

[6] = 16 g ai/ha, scale 0 to 100, 0 no effect, 100 complete control
[7] = 31 g ai/ha, scale 0 to 100, 0 no effect, 100 complete control
[8] = Postemergence, 31 g ai/ha, scale 0 to 100 (0 no effect, 100 complete control)
[9] = Postemergence, 62 g ai/ha, scale 0 to 100 (0 no effect, 100 complete control)
[10] = Postemergence, 125 g ai/ha, scale 0 to 100, 0 no effect, 100 complete control
[11] = Postemergence, 16 g ai/ha, scale 0 to 100
[12] = Preemergence, 16 g ai/ha, scale 0 to 100, 0 no effect, 100 complete control
[13] = Preemergence, 31 g ai/ha, scale 0 to 100, 0 no effect, 100 complete control
[14] = Preemergence, 62 g ai/ha, scale 0 to 100
[15] = Preemergence, 125 g ai/ha, scale 0 to 100

Row | Compound | Plant response rating, Panicum, Fall ([1]; 125 g ai/ha, scale 0 to 100) | Plant response rating, Panicum, Fall ([1]; 250 g ai/ha, scale 0 to 100) | Plant response rating, Waterhemp (Waterhemp) | Plant response rating, Foxtail, Green ([2]; 62 g ai/ha, scale 0 to 100) | Plant response rating, Foxtail, Green ([2]; 125 g ai/ha, scale 0 to 100) | Plant response rating, Foxtail, Green ([2]; 250 g ai/ha, scale 0 to 100) | Plant response rating, Surinam Grass ([3]; 125 g ai/ha, scale 0 to 100) | Plant response rating, Surinam Grass ([3]; 250 g ai/ha, scale 0 to 100) | Plant response rating: Kochia (kochia (Kochia scoparia); [8]) | Plant response rating: Kochia (kochia (Kochia scoparia); [9]) | Plant response rating: Kochia (kochia (Kochia scoparia); [10]) | Plant response rating, Kochia (kochia (Kochia scoparia); [11]) | Plant response rating, Kochia (kochia (Kochia scoparia); [12]) | Plant response rating, Kochia (kochia (Kochia scoparia); [13]) | Plant response rating, Kochia (kochia (Kochia scoparia); [14]) | Plant response rating, Kochia (kochia (Kochia scoparia); [15]) | Plant response rating: Lambsquarters [4, 8] | Plant response rating: Lambsquarters [4, 9] | Plant response rating: Lambsquarters [4, 10] | Plant response rating, Lambsquarters [4, 11] | other results
1 | CCc1nn(-c2ccc(F)cc2)nc1Cc1ccnc(C(F)(F)F)c1 [Compound 154] | 100 | 100 | 100 | 100 | 100 | 100 | 70 | 90 |  |  |  |  |  |  |  |  |  |  |  |  | Plant response rating, Panicum, Fall [1, 6]: 15; Plant response rating, Panicum, Fall [1, 7]: 90; Plant response rating, Foxtail, Green [2, 6]: 40; Plant response rating, Foxtail, Green [2, 7]: 75; Plant response rating, Surinam Grass [3, 6]: 0; Plant response rating, Surinam Grass [3, 7]: 10
2 | CCc1nn(-c2ccc(C(F)(F)F)cc2)nc1Cc1ccnc(C(F)(F)F)c1 [Compound 155] | 100 | 100 | 100 | 100 | 100 | 100 | 90 | 90 | 80 | 85 | 85 | 70 | 30 | 60 | 65 | 75 | 95 | 90 | 95 | 95 | Plant response rating, Lambsquarters [4, 12]: 20; Plant response rating, Lambsquarters [4, 13]: 55; Plant response rating, Lambsquarters [4, 14]: 90; Plant response rating, Lambsquarters [4, 15]: 90; Plant response rating: Mustard, Wild [5, 8]: 100; Plant response rating: Mustard, Wild [5, 9]: 100; Plant response rating: Mustard, Wild [5, 10]: 100; Plant response rating, Mustard, Wild [5, 11]: 80; Plant response rating, Mustard, Wild [5, 12]: 55; Plant response rating, Mustard, Wild [5, 13]: 55; Plant response rating, Mustard, Wild [5, 14]: 100; Plant response rating, Mustard, Wild [5, 15]: 100
3 | Cc1nn(-c2ccc(F)c(C(F)(F)F)c2)nc1Cc1ccnc(C(F)(F)F)c1 [Compound 156] |  |  | 100 |  |  |  |  |  | 80 | 95 | 90 | 75 | 10 | 30 | 65 | 80 | 90 | 85 | 95 | 85 | Plant response rating, Lambsquarters [4, 12]: 25; Plant response rating, Lambsquarters [4, 13]: 30; Plant response rating, Lambsquarters [4, 14]: 85; Plant response rating, Lambsquarters [4, 15]: 100; Plant response rating: Mustard, Wild [5, 8]: 95; Plant response rating: Mustard, Wild [5, 9]: 100; Plant response rating: Mustard, Wild [5, 10]: 100; Plant response rating, Mustard, Wild [5, 11]: 100; Plant response rating, Mustard, Wild [5, 12]: 10; Plant response rating, Mustard, Wild [5, 13]: 85; Plant response rating, Mustard, Wild [5, 14]: 95; Plant response rating, Mustard, Wild [5, 15]: 100
4 | FCc1nn(-c2ccc(F)cc2)nc1Oc1ccnc(C(F)(F)F)c1 [Compound 160] |  |  | 100 |  |  |  |  |  |  |  |  |  |  |  |  |  |  |  |  |  | 
5 | CCOCc1nn(-c2ccc(F)cc2)nc1Oc1ccnc(C(F)(F)F)c1 [Compound 163] |  |  | 100 |  |  |  |  |  |  |  |  |  |  |  |  |  |  |  |  |  | 
6 | CCOc1nn(-c2ccc(Cl)cc2)nc1Cc1ccnc(C(F)(F)F)c1 [Compound 188] |  |  | 100 |  |  |  |  |  |  |  |  |  |  |  |  |  |  |  |  |  | 
